# Tests used:
# PARP7 = molecular target: T1, PARP7 (Homo sapiens, UniProt Q7Z3E1); assay: biochemical;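 note: MSD light signal quantifying PARP7 captured by a plate-immobilized probe, read after 1.5 h equilibration plus 1.5 h with SULFO-TAG anti-GST antibody at room temperature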
# T1 sequence (Q7Z3E1 1-657): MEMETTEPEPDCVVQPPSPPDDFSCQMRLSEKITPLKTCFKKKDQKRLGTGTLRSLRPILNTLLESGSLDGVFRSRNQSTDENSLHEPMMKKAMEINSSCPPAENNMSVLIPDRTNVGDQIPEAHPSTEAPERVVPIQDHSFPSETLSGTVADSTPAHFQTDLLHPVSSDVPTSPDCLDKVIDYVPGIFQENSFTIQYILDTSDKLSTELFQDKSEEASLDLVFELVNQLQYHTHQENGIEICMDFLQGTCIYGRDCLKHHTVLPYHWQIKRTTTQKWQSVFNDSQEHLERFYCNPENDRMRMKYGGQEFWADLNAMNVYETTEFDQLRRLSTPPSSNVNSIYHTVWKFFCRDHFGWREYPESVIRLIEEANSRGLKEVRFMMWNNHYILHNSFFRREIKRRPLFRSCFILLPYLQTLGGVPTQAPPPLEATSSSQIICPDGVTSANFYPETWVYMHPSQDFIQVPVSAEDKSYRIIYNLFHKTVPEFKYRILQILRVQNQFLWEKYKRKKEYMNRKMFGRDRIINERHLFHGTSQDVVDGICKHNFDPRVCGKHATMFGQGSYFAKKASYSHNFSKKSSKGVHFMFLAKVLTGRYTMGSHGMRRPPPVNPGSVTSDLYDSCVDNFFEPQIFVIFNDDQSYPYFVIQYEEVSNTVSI
# Method: Probe Displacement Assay for PARP7 Displacement of a biotinylated probe (RBN011147; Wigle et al., Cell Chemical Biology, 2020, pp. 877-887) from the PARP7 NAD+-binding site was measured in vitro using a Mesoscale Discovery electrochemiluminescent assay. […] Next, 10 μl of 10 nM PARP7 protein incubated for 1 hour at room temperature with a dose response curve of each test compound in a Greiner LDV polypropylene plate (#781201) is added to the MSD plate containing the immobilized probe. The interaction is allowed to reach equilibrium for 1.5 hours, and then 10 ul of SULFO-TAG labeled anti-GST antibody (Cat #R32AA-1) is added to each well and allowed to incubate for an additional 1.5 hours at room temperature. Finally, 10 μl of MSD read buffer T (4×, Cat. #R92C-1) is added to each well using a Bravo liquid handler to prevent air bubbles in the wells, and the plates are subsequently read in an MSD instrument. Light intensity is then measured to quantify the amount of PARP7 bound to the immobilized probe on the plate.
# [1] = system: STAT1 (phosphorylated at Tyr701) in NCI-H1373 cells; assay: Phospho-STAT1 (Tyr701) LANCE Ultra TR-FRET Detection Assay; format: cell-based; conditions: Homo sapiens, 48 hours, induction of pSTAT1, normalized to 10 uM positive control and DMSO, 4-parameter fit, read-out: NH1373 pSTAT1 EC50
# Method: Phospho-STAT1 (Tyr701 LANCE Ultra TR-FRET Detection Assay
# LANCE Ultra phospho-STAT1 (Tyr701) kits available from Perkin Elmer are designed for the detection of phosphorylated STAT1 in cell lysates using a simple, homogeneous LANCE Ultra sandwich assay (Cat. #TRF4028M). This assay is intended for assessing compound induction of endogenous levels of cellular STAT1 (phosphorylated at Tyr701) in NCI-H1373 cells. The NCI-H1373 cells are cultured in RPMI 1640 media containing 10% heat inactivated FBS, GlutaMAX, 1% Penicillin-Streptomycin. An Echo acoustic liquid handler is used to transfer 60 nanoliters of compound dilutions using the Echo Qualified, 384-well polypropylene microplate clear flat bottom source plates into a Greiner (#781080) cell culture microplate. NCI-H1373 cells are seeded into these compound-spotted culture plates at 30,000 cells/well in a 60 uL volume in growth media. The plates are incubated in a 5% CO2 humidified incubator at 37° C. for 48 hours. […] Briefly, 20 μL of supplemented lysis buffer is added to each well and allowed to shake for 1 hour at 400 rpm. Next, 5 ul of remixed antibody solutions (vol/vol) prepared in detection buffer are added to each well and allowed to incubate at room temperature overnight. After spinning the plate down at 300 rpm for […], the plate is read on an EnVision plate reader set up for Eu3+ Cryptate and fluorescence emission is measured at two different wavelengths (665 nm and 620 nm).
Compound,IC50 (PARP7) [µM],EC50 [1] [µM]
"O=C([C@H]1CN(Cc2cc(C(F)(F)F)c(=O)[nH]n2)CCO1)N1CCN(c2ncc(C(F)(F)F)cn2)CC1 [Example 75, 5-(trifluoromethyl)-3-[[(2R)-2-[4-[5-(trifluoromethyl)pyrimidin-2-yl]piperazine-1-carbonyl]morpholin-4-yl]methyl]-1H-pyridazin-6-one]",0.00512,1.35
"CC(CCCC(=O)N1CCN(c2ncc(C(F)(F)F)cn2)CC1)c1cc(C(F)(F)F)c(=O)[nH]n1 (stereo not drawn) [Example 8, 6-(6-oxo-6-(4-(5-(trifluoromethyl)pyrimidin-2-yl)piperazin-1-yl)hexan-2-yl)-4-(trifluoromethyl)pyridazin-3(2H)-one]",0.00139,0.708
"CCN(CCCC(=O)N1CCN(c2ncc(C(F)(F)F)cn2)CC1)c1cc(C(F)(F)F)c(=O)[nH]n1 [Example 36, 6-(ethyl(4-oxo-4-(4-(5-(trifluoromethyl)pyrimidin-2-yl)piperazin-1-yl)butyl)amino)-4-(trifluoromethyl)pyridazin-3(2H)-one]",0.000179,0.0516
"O=C(CC[C@@H]1CCCN1c1cc(C(F)(F)F)c(=O)[nH]n1)N1CCN(c2ncc(C(F)(F)F)cn2)CC1 [Example 27, (S)-6-(2-(3-oxo-3-(4-(5-(trifluoromethyl)pyrimidin-2-yl)piperazin-1-yl)propyl)pyrrolidin-1-yl)-4-(trifluoromethyl)pyridazin-3(2H)-one]",0.000212,0.00931
"O=C(CCCNc1cc(C(F)(F)F)c(=O)[nH]n1)N1CCN(c2ccc(C(F)(F)F)cn2)CC1 [Example 53, 3-[[4-oxo-4-[4-[5-(trifluoromethyl)-2-pyridyl]piperazin-1-yl]butyl]amino]-5-(trifluoromethyl)-1H-pyridazin-6-one]",0.00034,0.218
"O=C([C@H]1CCC[C@H](Nc2cc(C(F)(F)F)c(=O)[nH]n2)C1)N1CCN(c2ncc(C(F)(F)F)cn2)CC1 [Example 61, 5-(trifluoromethyl)-3-[[(1S,3S)-3-[4-[5-(trifluoromethyl)pyrimidin-2-yl]piperazine-1-carbonyl]cyclohexyl]amino]-1H-pyridazin-6-one]",0.00178,≥ 10
"O=C(N1CCN(c2ncc(C(F)(F)F)cn2)CC1)C1(CCNc2cc(C(F)(F)F)c(=O)[nH]n2)CC1 [Example 70, 5-(trifluoromethyl)-3-[2-[1-[4-[5-(trifluoromethyl)pyrimidin-2-yl]piperazine-1-carbonyl]cyclopropyl]ethylamino]-1H-pyridazin-6-one]",0.000372,0.319
"O=C(C[C@H]1CCc2c1n[nH]c(=O)c2C(F)(F)F)N1CCN(c2ncc(C(F)(F)F)cn2)CC1 [Example 81, (R)-7-(2-oxo-2-(4-(5-(trifluoromethyl)pyrimidin-2-yl)piperazin-1-yl)ethyl)-4-(trifluoromethyl)-2,5,6,7-tetrahydro-3H-cyclopenta[c]pyridazin-3-one]",–,≥ 10
"O=C([C@H]1CC[C@H](Nc2cc(C(F)(F)F)c(=O)[nH]n2)C1)N1CCN(c2ncc(C(F)(F)F)cn2)CC1 [Example 65, 5-(trifluoromethyl)-3-[[(1S,3S)-3-[4-[5-(trifluoromethyl)pyrimidin-2-yl]piperazine-1-carbonyl]cyclopentyl]amino]-1H-pyridazin-6-one]",–,≥ 10
"O=C(CCc1ccccc1-c1cc(C(F)(F)F)c(=O)[nH]n1)N1CCN(c2ncc(C(F)(F)F)cn2)CC1 [Example 3, 6-(2-(3-oxo-3-(4-(5-(trifluoromethyl)pyrimidin-2-yl)piperazin-1-yl)propyl)phenyl)-4-(trifluoromethyl)pyridazin-3(2H)-one]",–,≥ 10
"O=C(CCCc1ccccc1-c1cc(C(F)(F)F)c(=O)[nH]n1)N1CCN(c2ncc(C(F)(F)F)cn2)CC1 [Example 5, 6-(2-(4-oxo-4-(4-(5-(trifluoromethyl)pyrimidin-2-yl)piperazin-1-yl)butyl)phenyl)-4-(trifluoromethyl)pyridazin-3(2H)-one]",–,≥ 10
"C[C@H](Nc1cc(C(F)(F)F)c(=O)[nH]n1)C(=O)N1CCN(c2ncc(C(F)(F)F)cn2)CC1 [Example 64, 3-[[(1S)-1-methyl-2-oxo-2-[4-[5-(trifluoromethyl)pyrimidin-2-yl]piperazin-1-yl]ethyl]amino]-5-(trifluoromethyl)-1H-pyridazin-6-one]",–,0.335
"O=C([C@H]1CC[C@@H](Nc2cc(C(F)(F)F)c(=O)[nH]n2)C1)N1CCN(c2ncc(C(F)(F)F)cn2)CC1 [Example 63, 5-(trifluoromethyl)-3-[[(1R,3S)-3-[4-[5-(trifluoromethyl)pyrimidin-2-yl]piperazine-1-carbonyl]cyclopentyl]amino]-1H-pyridazin-6-one]",–,≥ 10
"O=c1[nH]nc(NCC2(N3CCN(c4ncc(C(F)(F)F)cn4)CC3)COC2)cc1C(F)(F)F [Example 59, 5-(trifluoromethyl)-3-[[3-[4-[5-(trifluoromethyl)pyrimidin-2-yl]piperazin-1-yl]oxetan-3-yl]methylamino]-1H-pyridazin-6-one]",–,≥ 10
"O=c1[nH]nc(N[C@]23CO[C@](C(=O)N4CCN(c5ncc(C(F)(F)F)cn5)CC4)(C2)C3)cc1C(F)(F)F [Example 46, 5-(trifluoromethyl)-3-[[1-[4-[5-(trifluoromethyl)pyrimidin-2-yl]piperazine-1-carbonyl]-2-oxabicyclo[2.1.1]hexan-4-yl]amino]-1H-pyridazin-6-one]",–,≥ 10
"CC(C)(CCCc1cc(C(F)(F)F)c(=O)[nH]n1)C(=O)N1CCN(c2ncc(C(F)(F)F)cn2)CC1 [Example 10, 6-(4,4-dimethyl-5-oxo-5-(4-(5-(trifluoromethyl)pyrimidin-2-yl)piperazin-1-yl)pentyl)-4-(trifluoromethyl)pyridazin-3(2H)-one]",–,≥ 10
"O=C(CCCCCc1cc(C(F)(F)F)c(=O)[nH]n1)N1CCN(c2ncc(C(F)(F)F)cn2)CC1 [Example 2, 6-(6-oxo-6-(4-(5-(trifluoromethyl)pyrimidin-2-yl)piperazin-1-yl)hexyl)-4-(trifluoromethyl)pyridazin-3(2H)-one]",–,≥ 10
"O=c1[nH]nc(N[C@]23CC[C@](C(=O)N4CCN(c5ncc(C(F)(F)F)cn5)CC4)(C2)C3)cc1C(F)(F)F [Example 48, 5-(trifluoromethyl)-3-[[4-[4-[5-(trifluoromethyl)pyrimidin-2-yl]piperazine-1-carbonyl]-1-bicyclo[2.1.1]hexanyl]amino]-1H-pyridazin-6-one]",–,≥ 10
"O=C(c1cccc(Oc2cc(C(F)(F)F)c(=O)[nH]n2)c1)N1CCN(c2ncc(C(F)(F)F)cn2)CC1 [Example 35, 4-(trifluoromethyl)-6-(3-(4-(5-(trifluoromethyl)pyrimidin-2-yl)piperazine-1-carbonyl)phenoxy)pyridazin-3(2H)-one]",–,≥ 10
"C[C@@H](Nc1cc(C(F)(F)F)c(=O)[nH]n1)C(=O)N1CCN(c2ncc(C(F)(F)F)cn2)CC1 [Example 66, 3-[[(1R)-1-methyl-2-oxo-2-[4-[5-(trifluoromethyl)pyrimidin-2-yl]piperazin-1-yl]ethyl]amino]-5-(trifluoromethyl)-1H-pyridazin-6-one]",–,≥ 10
"O=C(CCCNc1c[nH]c(=O)c(C(F)(F)F)c1)N1CCN(c2ncc(C(F)(F)F)cn2)CC1 [Example 41, 5-((4-oxo-4-(4-(5-(trifluoromethyl)pyrimidin-2-yl)piperazin-1-yl)butyl)amino)-3-(trifluoromethyl)pyridin-2(1H)-one]",–,≥ 10
"O=C([C@H]1CN(c2cc(C(F)(F)F)c(=O)[nH]n2)CCO1)N1CCN(c2ncc(C(F)(F)F)cn2)CC1 [Example 45, (R)-4-(trifluoromethyl)-6-(2-(4-(5-(trifluoromethyl)pyrimidin-2-yl)piperazine-1-carbonyl)morpholino)pyridazin-3(2H)-one]",–,≥ 10
"O=C(C[C@@H]1CCc2c1n[nH]c(=O)c2C(F)(F)F)N1CCN(c2ncc(C(F)(F)F)cn2)CC1 [Example 80, (S)-7-(2-oxo-2-(4-(5-(trifluoromethyl)pyrimidin-2-yl)piperazin-1-yl)ethyl)-4-(trifluoromethyl)-2,5,6,7-tetrahydro-3H-cyclopenta[c]pyridazin-3-one]",–,0.429
